# Reference: the supplement of paper PMC10627819
# Tests used:
# Test in all cases: Bliss interaction score (quartile over a dose matrix) (fitness difference); higher = more antagonism (negative = synergy)
# B. subtilis 168 = system: B. subtilis 168
# Procedure, shortened: (§1)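 Fitness is OD595 at stationary-phase entry relative to the plate's robust no-drug mean, capped at 1. Single-drug fitness was inferred from combinations. The Bliss score is observed minus product-expected fitness, summarised by quartiles over technical, biological and donor/recipient replicates.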
# S. aureus DSM 20231 = system: S. aureus DSM 20231
# Procedure, shortened: as §1
# S. aureus Newman = system: S. aureus Newman
# Procedure, shortened: as §1
# S. pneumoniae D39V = system: S. pneumoniae D39V
# Procedure, shortened: as §1
# 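Note: first quartile when negative (synergy) and third quartile when positive (antagonism).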
smiles,measurement,setting,value
CO[C@@]12[C@H](COC(N)=O)C3=C(C(=O)C(C)=C(N)C3=O)N1C[C@@H]1N[C@@H]12 [MitomycinC] + CC1=C\[C@@H](O)CC(=O)Cc2nc(co2)C(=O)N2CCC=C2C(=O)O[C@H](C(C)C)[C@H](C)/C=C/C(=O)NC\C=C\1 [Virginiamycin M1],Bliss interaction score,B. subtilis 168,0.0757
same,Bliss interaction score,S. aureus DSM 20231,0.0401
same,Bliss interaction score,S. aureus Newman,-0.059
same,Bliss interaction score,S. pneumoniae D39V,0.0805
CN[C@H](CC(C)C)C(=O)N[C@H]1C(=O)N[C@@H](CC(N)=O)C(=O)N[C@H]2C(=O)N[C@H]3C(=O)N[C@H](C(=O)N[C@H](C(=O)O)c4cc(O)cc(O)c4-c4cc3ccc4O)[C@H](O[C@H]3C[C@](C)(N)[C@@H](O)[C@H](C)O3)c3ccc(c(Cl)c3)Oc3cc2cc(c3O[C@@H]2O[C@H](CO)[C@@H](O)[C@H](O)[C@H]2O[C@H]2C[C@](C)(NCc3ccc(-c4ccc(Cl)cc4)cc3)[C@@H](O)[C@H](C)O2)Oc2ccc(cc2Cl)[C@H]1O [Oritavancin] + CCCCCCCCCC(=O)N[C@@H]1[C@H]([C@@H]([C@H](O[C@H]1OC2=C3C=C4C=C2OC5=C(C=C(C=C5)[C@H]([C@H]6C(=O)N[C@@H](C7=C(C(=CC(=C7)O)OC8[C@H]([C@H]([C@@H]([C@H](O8)CO)O)O)O)C9=C(C=CC(=C9)[C@H](C(=O)N6)NC(=O)[C@@H]4NC(=O)[C@@H]1C2=CC(=CC(=C2)OC2=C(C=CC(=C2)[C@H](C(=O)N[C@H](CC2=CC(=C(O3)C=C2)Cl)C(=O)N1)N)O)O)O)C(=O)O)O[C@H]1[C@@H]([C@H]([C@@H]([C@H](O1)CO)O)O)NC(=O)C)Cl)CO)O)O [Teicoplanin],Bliss interaction score,B. subtilis 168; main component drawn,-0.0407
same,Bliss interaction score,S. aureus DSM 20231; main component drawn,-0.0634
same,Bliss interaction score,S. aureus Newman; main component drawn,-0.117
same,Bliss interaction score,S. pneumoniae D39V; main component drawn,0.0813
CC[C@H]1OC(=O)[C@H](C)[C@@H](O[C@H]2C[C@@](C)(OC)[C@@H](O)[C@H](C)O2)[C@H](C)[C@@H](O[C@@H]2O[C@H](C)C[C@H](N(C)C)[C@H]2O)[C@](C)(O)C[C@@H](C)C(=O)[C@H](C)[C@@H](O)[C@]1(C)O [Erythromycin] + Cc1onc(-c2ccccc2)c1C(=O)N[C@@H]1C(=O)N2[C@@H]1SC(C)(C)[C@@H]2C(=O)O [Oxacillin],Bliss interaction score,B. subtilis 168,-0.0427
same,Bliss interaction score,S. aureus DSM 20231,0.0345
same,Bliss interaction score,S. aureus Newman,0.0255
same,Bliss interaction score,S. pneumoniae D39V,0.0509
CO[C@H]1/C=C/O[C@@]2(C)Oc3c(C)c(O)c4c(O)c(c(/C=N/N5CCN(C)CC5)c(O)c4c3C2=O)NC(=O)/C(C)=C\C=C\[C@H](C)[C@H](O)[C@@H](C)[C@@H](O)[C@@H](C)[C@H](OC(C)=O)[C@@H]1C [Rifampicin] + COc1cc(Cc2cnc(N)nc2N)cc(OC)c1OC [Trimethoprim],Bliss interaction score,B. subtilis 168,0.131
same,Bliss interaction score,S. aureus DSM 20231,-0.0578
same,Bliss interaction score,S. aureus Newman,-0.0473
same,Bliss interaction score,S. pneumoniae D39V,0.0931
CC(=O)NC[C@H]1CN(c2ccc(N3CCOCC3)c(F)c2)C(=O)O1 [Linezolid] + CC[C@H]1OC(=O)[C@H](C)C(=O)[C@H](C)[C@@H](O[C@@H]2O[C@H](C)C[C@H](N(C)C)[C@H]2O)[C@](C)(OC)C[C@@H](C)C(=O)[C@H](C)[C@H]2N(CCCCn3cnc(-c4cccnc4)c3)C(=O)O[C@]12C [Telithromycin],Bliss interaction score,B. subtilis 168,-0.143
same,Bliss interaction score,S. aureus DSM 20231,-0.133
same,Bliss interaction score,S. aureus Newman,-0.074
same,Bliss interaction score,S. pneumoniae D39V,-0.0921
CC[C@H](c1ccc(O)cc1)[C@@H](CC)c1ccc(O)cc1 [Hexestrol] + CO[C@@]12[C@H](COC(N)=O)C3=C(C(=O)C(C)=C(N)C3=O)N1C[C@@H]1N[C@@H]12 [MitomycinC],Bliss interaction score,S. aureus DSM 20231,-0.248
CC(C)Cc1ccc(C(C)C(=O)O)cc1 (centres undefined) [Ibuprofen] + C/C(=C\C(=O)OCCCCCCCCC(=O)O)C[C@@H]1OC[C@H](C[C@@H]2O[C@H]2[C@@H](C)[C@H](C)O)[C@@H](O)[C@H]1O [Pseudomonic acid],Bliss interaction score,S. aureus DSM 20231,0.169
CN[C@@H]1[C@H](O[C@H]2[C@H](O[C@H]3[C@H](O)[C@@H](O)[C@H](N=C(N)N)[C@@H](O)[C@@H]3N=C(N)N)O[C@@H](C)[C@]2(O)C=O)O[C@@H](CO)[C@H](O)[C@H]1O [Streptomycin] + CCCSc1nc(N[C@@H]2C[C@H]2c2ccc(F)c(F)c2)c2nnn([C@@H]3C[C@H](OCCO)[C@@H](O)[C@H]3O)c2n1 [Ticagrelor],Bliss interaction score,S. aureus DSM 20231,-0.259
CC(C)Cc1ccc(C(C)C(=O)O)cc1 (centres undefined) [Ibuprofen] + COc1cc(Cc2cnc(N)nc2N)cc(OC)c1OC [Trimethoprim],Bliss interaction score,S. aureus DSM 20231,-0.145
CN[C@@H]1[C@H](O[C@H]2[C@H](O[C@H]3[C@H](O)[C@@H](O)[C@H](N=C(N)N)[C@@H](O)[C@@H]3N=C(N)N)O[C@@H](C)[C@]2(O)C=O)O[C@@H](CO)[C@H](O)[C@H]1O [Streptomycin] + Cc1ccc(C(C)C)c(O)c1 [Thymol],Bliss interaction score,S. aureus DSM 20231,-0.425
CN[C@@H]1[C@H](O[C@H]2[C@H](O[C@H]3[C@H](O)[C@@H](O)[C@H](N=C(N)N)[C@@H](O)[C@@H]3N=C(N)N)O[C@@H](C)[C@]2(O)C=O)O[C@@H](CO)[C@H](O)[C@H]1O [Streptomycin] + CCCc1nc2c(C)cc(-c3nc4ccccc4n3C)cc2n1Cc1ccc(-c2ccccc2C(=O)O)cc1 [Telmisartan],Bliss interaction score,S. aureus DSM 20231,0.123
CN(Cc1cnc2nc(N)nc(N)c2n1)c1ccc(C(=O)N[C@@H](CCC(=O)O)C(=O)O)cc1 [Methotrexate] + COc1cc(Cc2cnc(N)nc2N)cc(OC)c1OC [Trimethoprim],Bliss interaction score,S. aureus DSM 20231,-0.242
CC(C)(O)c1ccccc1CC[C@@H](SCC1(CC(=O)O)CC1)c1cccc(/C=C/c2ccc3ccc(Cl)cc3n2)c1 [Montelukast] + CCC(C)C1C(=O)NC(=C)C(=O)NC(C(=O)NC(CSCC(C(=O)N1)NC(=O)/C(=C/C)/NC(=O)C(C(C)CC)N)C(=O)NC2C(SCC(NC(=O)CNC(=O)C3CCCN3C2=O)C(=O)NC(CCCCN)C(=O)NC4C(SCC(NC(=O)CNC(=O)C(NC(=O)C(NC(=O)C(NC(=O)CNC4=O)C)CC(C)C)CCSC)C(=O)NC(CC(=O)N)C(=O)NC(CCSC)C(=O)NC(CCCCN)C(=O)NC5C(SCC6C(=O)NC(C(=O)NC(CSC(C(C(=O)N6)NC(=O)C(NC5=O)C)C)C(=O)NC(CO)C(=O)NC(C(C)CC)C(=O)NC(CC7=CN=CN7)C(=O)NC(C(C)C)C(=O)NC(=C)C(=O)NC(CCCCN)C(=O)O)CC8=CN=CN8)C)C)C)CC(C)C [Nisin],Bliss interaction score,S. aureus DSM 20231; main component drawn,0.297
CO[C@@]12[C@H](COC(N)=O)C3=C(C(=O)C(C)=C(N)C3=O)N1C[C@@H]1N[C@@H]12 [MitomycinC] + Cc1c(Cl)cccc1Nc1ccccc1C(=O)O [Tolfenamic],Bliss interaction score,S. aureus DSM 20231,-0.273
CO[C@@]12[C@H](COC(N)=O)C3=C(C(=O)C(C)=C(N)C3=O)N1C[C@@H]1N[C@@H]12 [MitomycinC] + CCCSc1nc(N[C@@H]2C[C@H]2c2ccc(F)c(F)c2)c2nnn([C@@H]3C[C@H](OCCO)[C@@H](O)[C@H]3O)c2n1 [Ticagrelor],Bliss interaction score,S. aureus DSM 20231,-0.392
CC[C@H](C)[C@H](N)C1=N[C@H](C(=O)N[C@@H](CC(C)C)C(=O)N[C@H](CCC(=O)O)C(=O)N[C@H](C(=O)N[C@H]2CCCCNC(=O)[C@H](CC(N)=O)NC(=O)[C@@H](CC(=O)O)NC(=O)[C@H](Cc3cnc[nH]3)NC(=O)[C@@H](Cc3ccccc3)NC(=O)[C@H]([C@@H](C)CC)NC(=O)[C@@H](CCCN)NC2=O)[C@@H](C)CC)CS1 [Bacitracin] + C[C@H]1C[C@@H]2[C@H]([C@@H](O)C[C@@]3(C)[C@H]2CC[C@]3(O)C(=O)CO)[C@@]2(C)C=CC(=O)C=C12 [Methylprednisolone],Bliss interaction score,S. aureus DSM 20231; main component drawn,-0.282
CC(=O)NC[C@H]1CN(c2ccc(N3CCOCC3)c(F)c2)C(=O)O1 [Linezolid] + COc1ccc2[nH]c([S+]([O-])Cc3ncc(C)c(OC)c3C)nc2c1 [Omeprazole],Bliss interaction score,S. aureus DSM 20231,0.192
CC(C)(O)c1ccccc1CC[C@@H](SCC1(CC(=O)O)CC1)c1cccc(/C=C/c2ccc3ccc(Cl)cc3n2)c1 [Montelukast] + Cn1nnc(-c2ccc(-c3ccc(N4C[C@H](CO)OC4=O)cc3F)cn2)n1 [Tedizolid],Bliss interaction score,S. aureus DSM 20231,-0.384
CC[C@H](C)[C@H](N)C1=N[C@H](C(=O)N[C@@H](CC(C)C)C(=O)N[C@H](CCC(=O)O)C(=O)N[C@H](C(=O)N[C@H]2CCCCNC(=O)[C@H](CC(N)=O)NC(=O)[C@@H](CC(=O)O)NC(=O)[C@H](Cc3cnc[nH]3)NC(=O)[C@@H](Cc3ccccc3)NC(=O)[C@H]([C@@H](C)CC)NC(=O)[C@@H](CCCN)NC2=O)[C@@H](C)CC)CS1 [Bacitracin] + CCCSc1nc(N[C@@H]2C[C@H]2c2ccc(F)c(F)c2)c2nnn([C@@H]3C[C@H](OCCO)[C@@H](O)[C@H]3O)c2n1 [Ticagrelor],Bliss interaction score,S. aureus DSM 20231; main component drawn,-0.27
